Results as given in BindingDB's records for doi:10.1016/S0960-894X(02)01050-8 (The University of Texas At Houston, 2003).
pIC50: −log10 of the molar value. Square brackets hold non-standard residues; d marks the D form. Peptide text beside a SMILES is read from it. ξ: configuration not given here. Phe(4-tetrazol-5-yl) = N[C@@H](Cc1ccc(-c2nnn[nH]2)cc1)C(=O)O; Phe(4-COOH) = N[C@@H](Cc1ccc(C(=O)O)cc1)C(=O)O; pY = N[C@@H](Cc1ccc(OP(=O)(O)O)cc1)C(=O)O; Thr(3ξ) = CC(O)[C@H](N)C(=O)O

These compounds were tested against Signal transducer and activator of transcription 3 (Mus musculus, UniProt P42227) (assay: Electrophoretic Mobility Shift Assay (EMSA)). Conditions: pH 7.8; 22 °C.
Description: His10-Stat3 was expressed in Sf9 cells from a baculovirus encoding the recombinant protein. A nuclear extract of the Sf9 cells was incubated with 32P-labeled high affinity c-fos sis inducible element (hSIE) either alone or in the presence of inhibitor. After 20 min of incubation, samples were electrophoresed on polyacrylamide gels. The gels were dried, exposed to a phosphorimager screen and scanned. IC50 values were derived from plots of spot intensity versus phosphopeptide concentration. The affinity of peptides to the SH2 domain is measured by the intensity of the radioactivity of the Stat3-DNA complex band in the electrophoresis gel.

Sequence of Signal transducer and activator of transcription 3 (P42227 whole entry, the tested form may be a part): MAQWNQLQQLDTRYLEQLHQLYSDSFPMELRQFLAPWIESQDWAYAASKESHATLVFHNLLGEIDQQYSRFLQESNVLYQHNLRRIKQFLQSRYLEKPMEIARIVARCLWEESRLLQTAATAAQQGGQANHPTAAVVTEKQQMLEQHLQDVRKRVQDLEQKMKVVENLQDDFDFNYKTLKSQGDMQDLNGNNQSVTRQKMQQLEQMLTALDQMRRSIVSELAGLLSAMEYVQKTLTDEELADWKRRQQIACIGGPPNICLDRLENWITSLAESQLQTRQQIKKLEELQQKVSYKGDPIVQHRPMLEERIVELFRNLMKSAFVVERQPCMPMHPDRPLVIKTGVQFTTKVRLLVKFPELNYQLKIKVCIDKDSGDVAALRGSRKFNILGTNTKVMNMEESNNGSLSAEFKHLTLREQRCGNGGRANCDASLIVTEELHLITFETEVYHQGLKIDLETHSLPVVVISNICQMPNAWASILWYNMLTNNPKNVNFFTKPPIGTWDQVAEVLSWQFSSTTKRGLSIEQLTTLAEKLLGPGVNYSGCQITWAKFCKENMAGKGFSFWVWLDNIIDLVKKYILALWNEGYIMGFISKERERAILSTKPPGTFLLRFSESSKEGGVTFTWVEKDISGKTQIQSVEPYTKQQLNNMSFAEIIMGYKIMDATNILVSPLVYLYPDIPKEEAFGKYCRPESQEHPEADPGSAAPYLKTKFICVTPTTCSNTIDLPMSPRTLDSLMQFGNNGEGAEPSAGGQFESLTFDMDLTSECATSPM

Row | pIC50 | SMILES
1 | 4.70 | CC(=O)N[C@@H](Cc1ccc(OP(=O)(O)O)cc1)C(=O)N[C@@H](CC(C)C)C(=O)N[C@@H](CCCCN)C(=O)N[C@H](C(=O)N[C@@H](CCCCN)C(=O)N[C@@H](Cc1ccccc1)C(N)=O)C(C)O (stereo partly drawn) [4-[(2S)-2-{[(1S)-1-{[(1S)-5-amino-1-{[(1S,2R)-1-{[(1S)-5-amino-1-{[(1S)-1-carbamoyl-2-phenylethyl]carbamoyl}pentyl]carbamoyl}-2-hydroxypropyl]carbamoyl}pentyl]carbamoyl}-3-methylbutyl]carbamoyl}-2-acetamidoethyl]phenoxyphosphonic acid] (Ac-[pY]LK[Thr(3ξ)]KF-NH2)
2 | 5.70 | CC(=O)N[C@@H](Cc1ccc(OP(=O)(O)O)cc1)C(=O)N[C@@H](CC(C)C)C(=O)N1CCC[C@H]1C(=O)N[C@@H](CC(N)=O)C(=O)N[C@H](C(=O)N[C@H](C(N)=O)C(C)C)C(C)O (stereo partly drawn) [4-[(2S)-2-{[(2S)-1-[(2S)-2-{[(1S)-2-carbamoyl-1-{[(1S,2S)-1-{[(1S)-1-carbamoyl-2-methylpropyl]carbamoyl}-2-hydroxypropyl]carbamoyl}ethyl]carbamoyl}pyrrolidin-1-yl]-4-methyl-1-oxopentan-2-yl]carbamoyl}-2-acetamidoethyl]phenoxyphosphonic acid] (Ac-[pY]LPN[Thr(3ξ)]V-NH2)
3 | < 5.22 | CC(=O)N[C@@H](Cc1ccc(-c2nnn[nH]2)cc1)C(=O)N[C@@H](CC(C)C)C(=O)N1CCC[C@H]1C(=O)N[C@@H](CCC(N)=O)C(=O)N[C@H](C(=O)N[C@H](C(N)=O)C(C)C)C(C)O (stereo partly drawn) [(2S)-N-[(1S,2S)-1-{[(1S)-1-carbamoyl-2-methylpropyl]carbamoyl}-2-hydroxypropyl]-2-{[(2S)-1-[(2S)-2-[(2S)-2-acetamido-3-[4-(2H-1,2,3,4-tetrazol-5-yl)phenyl]propanamido]-4-methylpentanoyl]pyrrolidin-2-yl]formamido}pentanediamide] (Ac-[Phe(4-tetrazol-5-yl)]LPQ[Thr(3ξ)]V-NH2)
4 | < 5.22 | CC(=O)N[C@@H](Cc1ccc(OP(=O)(O)O)cc1)C(=O)N[C@@H](CC(C)C)C(=O)N1CCC[C@H]1C(=O)N[C@@H](C)C(=O)N[C@H](C(=O)N[C@H](C(N)=O)C(C)C)C(C)O (some centres undefined) [Y(p)LPATV] (Ac-[pY]LPA[Thr(3ξ)]V-NH2)
5 | 4.52 | CCC(C)[C@H](NC(=O)[C@H](Cc1ccc(OP(=O)(O)O)cc1)NC(C)=O)C(=O)N[C@@H](CC(N)=O)C(=O)N[C@@H](CCC(N)=O)C(=O)N[C@@H](CO)C(=O)N[C@H](C(N)=O)C(C)C (some centres undefined) [Y(p)INQSV]
6 | 5.80 | CC(=O)N[C@@H](Cc1ccc(OP(=O)(O)O)cc1)C(=O)N[C@@H](C)C(=O)N1CCC[C@H]1C(=O)N[C@@H](CCC(N)=O)C(=O)N[C@H](C(=O)N[C@H](C(N)=O)C(C)C)C(C)O (some centres undefined) [Y(p)APQTV] (Ac-[pY]APQ[Thr(3ξ)]V-NH2)
7 | < 5.22 | CC(=O)N[C@@H](Cc1ccc(OP(=O)(O)O)cc1)C(=O)N[C@@H](CC(C)C)C(=O)N1CCC[C@H]1C(=O)N[C@@H](CCC(=O)O)C(=O)N[C@H](C(=O)N[C@H](C(N)=O)C(C)C)C(C)O (stereo partly drawn) [(4S)-4-{[(1S,2S)-1-{[(1S)-1-carbamoyl-2-methylpropyl]carbamoyl}-2-hydroxypropyl]carbamoyl}-4-{[(2S)-1-[(2S)-2-[(2S)-2-acetamido-3-[4-(phosphonooxy)phenyl]propanamido]-4-methylpentanoyl]pyrrolidin-2-yl]formamido}butanoic acid] (Ac-[pY]LPE[Thr(3ξ)]V-NH2)
8 | 5.10 | CC(=O)N[C@@H](Cc1ccc(OP(=O)(O)O)cc1)C(=O)N[C@@H](CCC(N)=O)C(=O)N[C@@H](CCCCN)C(=O)N[C@@H](CCC(N)=O)C(=O)N[C@H](C(=O)N[C@@H](CCCN=C(N)N)C(N)=O)C(C)O (some centres undefined) [Y(p)QKQTR] (Ac-[pY]QKQ[Thr(3ξ)]R-NH2)
9 | < 5.22 | CC(=O)N[C@@H](Cc1ccc(OP(=O)(O)O)cc1)C(=O)N[C@@H](CC(C)C)C(=O)N1CCC[C@H]1C(N)=O [Y(p)LP] (Ac-[pY]-Leu-Pro-NH2)
10 | 4.10 | CC(=O)N[C@@H](Cc1ccc(OP(=O)(O)O)cc1)C(=O)N[C@@H](CC(C)C)C(=O)N[C@@H](CCCN=C(N)N)C(=O)N[C@@H](CS)C(=O)N[C@@H](CC(=O)O)C(=O)N[C@@H](CO)C(N)=O [(3S)-3-[(2R)-2-[(2S)-5-carbamimidamido-2-[(2S)-2-[(2S)-2-acetamido-3-[4-(phosphonooxy)phenyl]propanamido]-4-methylpentanamido]pentanamido]-3-sulfanylpropanamido]-3-{[(1S)-1-carbamoyl-2-hydroxyethyl]carbamoyl}propanoic acid] (Ac-[pY]LRCDS-NH2)
11 | < 5.22 | CC(=O)N[C@@H](Cc1ccc(C(=O)O)cc1)C(=O)N[C@@H](CC(C)C)C(=O)N1CCC[C@H]1C(=O)N[C@@H](CCC(N)=O)C(=O)N[C@H](C(=O)N[C@H](C(N)=O)C(C)C)C(C)O (stereo partly drawn) [4-[(2S)-2-{[(2S)-1-[(2S)-2-{[(1S)-3-carbamoyl-1-{[(1S,2S)-1-{[(1S)-1-carbamoyl-2-methylpropyl]carbamoyl}-2-hydroxypropyl]carbamoyl}propyl]carbamoyl}pyrrolidin-1-yl]-4-methyl-1-oxopentan-2-yl]carbamoyl}-2-acetamidoethyl]benzoic acid] (Ac-[Phe(4-COOH)]LPQ[Thr(3ξ)]V-NH2)
12 | 5.40 | CC(=O)N[C@@H](Cc1ccc(OP(=O)(O)O)cc1)C(=O)N[C@@H](CC(C)C)C(=O)N[C@@H](C)C(=O)N[C@@H](CCC(N)=O)C(=O)N[C@H](C(=O)N[C@H](C(N)=O)C(C)C)C(C)O (stereo partly drawn) [4-[(2S)-2-{[(1S)-1-{[(1S)-1-{[(1S)-3-carbamoyl-1-{[(1S,2S)-1-{[(1S)-1-carbamoyl-2-methylpropyl]carbamoyl}-2-hydroxypropyl]carbamoyl}propyl]carbamoyl}ethyl]carbamoyl}-3-methylbutyl]carbamoyl}-2-acetamidoethyl]phenoxyphosphonic acid] (Ac-[pY]LAQ[Thr(3ξ)]V-NH2)
13 | 6.40 | CC(=O)N[C@@H](Cc1ccc(OP(=O)(O)O)cc1)C(=O)N[C@@H](CC(C)C)C(=O)N1CCC[C@H]1C(=O)N[C@@H](CCC(N)=O)C(=O)N[C@H](C(=O)N[C@@H](C)C(N)=O)C(C)O (stereo partly drawn) [4-[(2S)-2-{[(2S)-1-[(2S)-2-{[(1S)-3-carbamoyl-1-{[(1S,2S)-1-{[(1S)-1-carbamoylethyl]carbamoyl}-2-hydroxypropyl]carbamoyl}propyl]carbamoyl}pyrrolidin-1-yl]-4-methyl-1-oxopentan-2-yl]carbamoyl}-2-acetamidoethyl]phenoxyphosphonic acid] (Ac-[pY]LPQ[Thr(3ξ)]A-NH2)
14 | < 3.82 | CC(=O)N[C@@H](Cc1ccc(OP(=O)(O)O)cc1)C(=O)N[C@@H](CO)C(=O)N[C@@H](CC(=O)O)C(=O)NCC(=O)N[C@@H](CC(N)=O)C(=O)N[C@@H](Cc1ccccc1)C(N)=O [Y(p)SDGNF] (Ac-[pY]SDGNF-NH2)

Row | SMILES | pIC50
15 | CC(=O)N[C@@H](Cc1ccc(CP(=O)(O)O)cc1)C(=O)N[C@@H](CC(C)C)C(=O)N1CCC[C@H]1C(=O)N[C@@H](CCC(N)=O)C(=O)N[C@H](C(=O)N[C@H](C(N)=O)C(C)C)C(C)O (stereo partly drawn) [({4-[(2S)-2-{[(2S)-1-[(2S)-2-{[(1S)-3-carbamoyl-1-{[(1S,2S)-1-{[(1S)-1-carbamoyl-2-methylpropyl]carbamoyl}-2-hydroxypropyl]carbamoyl}propyl]carbamoyl}pyrrolidin-1-yl]-4-methyl-1-oxopentan-2-yl]carbamoyl}-2-acetamidoethyl]phenyl}methyl)phosphonic acid] | 5.10
16 | CC(=O)N[C@@H](Cc1ccc(OP(=O)(O)O)cc1)C(=O)N[C@@H](CC(C)C)C(=O)N1CCC[C@H]1C(=O)N[C@@H](CCC(N)=O)C(N)=O (Ac-[pY]LPQ-NH2) | 6.00
17 | CC(=O)N[C@@H](Cc1ccc(OP(=O)(O)O)cc1)C(=O)N[C@@H](CC(C)C)C(=O)N1CCC[C@H]1C(=O)N[C@@H](CCC(N)=O)C(=O)N[C@H](C(=O)N[C@H](C(N)=O)C(C)C)C(C)O (stereo partly drawn) [4-[(2S)-2-{[(2S)-1-[(2S)-2-{[(1S)-3-carbamoyl-1-{[(1S,2S)-1-{[(1S)-1-carbamoyl-2-methylpropyl]carbamoyl}-2-hydroxypropyl]carbamoyl}propyl]carbamoyl}pyrrolidin-1-yl]-4-methyl-1-oxopentan-2-yl]carbamoyl}-2-acetamidoethyl]phenoxyphosphonic acid] | 6.82
18 | CC(=O)N[C@@H](Cc1ccc(OP(=O)(O)O)cc1)C(=O)N[C@@H](CC(C)C)C(=O)N1CCC[C@H]1C(=O)N[C@@H](CCC(N)=O)C(=O)N[C@H](C(N)=O)C(C)O (stereo partly drawn) [4-[(2S)-2-{[(2S)-1-[(2S)-2-{[(1S)-3-carbamoyl-1-{[(1S,2S)-1-carbamoyl-2-hydroxypropyl]carbamoyl}propyl]carbamoyl}pyrrolidin-1-yl]-4-methyl-1-oxopentan-2-yl]carbamoyl}-2-acetamidoethyl]phenoxyphosphonic acid] (Ac-[pY]LPQ[Thr(3ξ)]-NH2) | 6.22
19 | CC(=O)N[C@@H](Cc1ccc(OP(=O)(O)O)cc1)C(=O)N[C@@H](CO)C(=O)N[C@H](C(=O)N[C@H](C(=O)N[C@H](C(=O)N[C@@H](Cc1cnc[nH]1)C(N)=O)C(C)C)C(C)C)C(C)O (some centres undefined) [Y(p)STVVH] (Ac-[pY]S[Thr(3ξ)]VVH-NH2) | < 3.82
